Measurements reported in patent US20090099167A1, “Organic compounds” (Novartis Institutes for Biomedical Research, priority 2004, published 2009).

Assays:
[1] = target: T1, human Flt-3 (Homo sapiens, UniProt P36888); test: Flt3 kinase inhibition, GST-Flt-3, 33P incorporation into poly(Glu,Tyr); assay type: biochemical; details: Table 5; read-out: Flt-3, IC50 class
T1 construct: expressing the amino acid region amino acids 563-993 of the cytoplasmic kinase domain of human Flt-3; made in house; host or cells: Sf9 (baculovirus)
T1 sequence (P36888 563-993): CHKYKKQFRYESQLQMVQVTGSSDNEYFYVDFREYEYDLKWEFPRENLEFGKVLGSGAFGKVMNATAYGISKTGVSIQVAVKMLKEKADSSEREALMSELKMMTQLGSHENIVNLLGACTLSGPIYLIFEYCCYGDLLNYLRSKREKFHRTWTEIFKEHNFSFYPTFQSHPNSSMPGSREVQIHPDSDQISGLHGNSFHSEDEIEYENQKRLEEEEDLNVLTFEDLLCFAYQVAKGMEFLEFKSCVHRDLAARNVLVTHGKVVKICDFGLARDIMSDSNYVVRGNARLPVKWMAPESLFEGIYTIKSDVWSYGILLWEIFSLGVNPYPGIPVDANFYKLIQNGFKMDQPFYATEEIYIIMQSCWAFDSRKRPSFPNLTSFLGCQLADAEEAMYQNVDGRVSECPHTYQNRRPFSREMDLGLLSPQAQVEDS
Method: (§1) The compounds to be tested are then diluted in culture medium (without FCS, with 0.1% bovine serum albumin) and added to the cells. (Controls comprise medium without test compounds). After two hours' incubation at 37° C., recombinant VEGF is added; the final VEGF concentration is 20 ng/ml). After a further five minutes incubation at 37° C., the cells are washed twice with ice-cold PBS (phosphate-buffered saline) and immediately lysed in 100 μl lysis buffer per well. The lysates are then centrifuged to remove the cell nuclei, and the protein concentrations of the supernatants are determined using a commercial protein assay (BIORAD). The lysates can then either be immediately used or, if necessary, stored at −20° C. A sandwich ELISA is carried out to measure the VEGF-R2 phosphorylation: a monoclonal antibody to VEGF-R2 (for example Mab 1495.12.14; ProQinase, Freiburg, Germany) is immobilized on black ELISA plates (OptiPlate™ HTRF-96 from Packard). The plates are then washed and the remaining free protein-binding sites are saturated with 3% TopBlock® (Juro, Cat. # TB232010) in phosphate buffered saline with Tween 20® (polyoxyethylen(20)-sorbitane monolaurate, ICI/Uniquema) (PBST). The cell lysates (20 μg protein per well) are then incubated in these plates overnight at 4° C. together with an antiphosphotyrosine antibody coupled with alkaline phosphatase (PY20:AP from Zymed). […] The luminescence is measured in a Packard Top Count Microplate Scintillation Counter. The difference between the signal of the positive control (stimulated with VEGF) and that of the negative control (not stimulated with VEGF) corresponds to VEGF-induced VEGF-R2 phosphorylation (=100%). The activity of the tested substances is calculated as percent inhibition of VEGF-induced VEGF-R2 phosphorylation, wherein the concentration of substance that induces half the maximum inhibition is defined as the IC50 (inhibitory dose for 50% inhibition). […] Flt3 kinase inhibition is determined as follows: The baculovirus donor vector pFbacG01 (GIBCO) is used to generate a recombinant baculovirus expressing the amino acid region amino acids 563-993 of the cytoplasmic kinase domain of human Flt-3. The coding sequence for the cytoplasmic domain of Flt-3 is amplified by PCR from human c-DNA libraries (Clontech). The amplified DNA fragments and the pFbacG01 vector are made compatible for ligation by digestion with BamH1 and HindIII. Ligation of these DNA fragments results in the baculovirus donor plasmid Flt-3(1.1). The production of the viruses, the expression of proteins in Sf9 cells and the purification of the GST-fused proteins are performed as follows: Production of virus: Transfer vector (pFbacG01-Flt-3) containing the Flt-3 kinase domain is transfected into the DH10Bac cell line (GIBCO) and the transfected cells are plated on selective agar plates. Colonies without insertion of the fusion sequence into the viral genome (carried by the bacteria) are blue. Single white colonies are picked and viral DNA (bacmid) is isolated from the bacteria by standard plasmid purification procedures. Sf9 or Sf21 cells (American Type Culture Collection) are then transfected in flasks with the viral DNA using Cellfectin reagent. Determination of small scale protein expression in Sf9 cells: Virus containing media is collected from the transfected cell culture and used for infection to increase its titre. Virus containing media obtained after two rounds of infection is used for large-scale protein expression. For large-scale protein expression 100 cm^2 round tissue culture plates are seeded with 5×10^7 cells/plate and infected with 1 mL of virus-containing media (approx. 5 MOIs). After 3 days the cells are scraped off the plate and centrifuged at 500 rpm for 5 min. Cell pellets from 10-20, 100 cm^2 plates, are resuspended in 50 mL of ice-cold lysis buffer (25 mMTris-HCl, pH 7.5, 2 mM EDTA, 1% NP-40, 1 mM DTT, 1 mM PMSF). The cells are stirred on ice for 15 min and then centrifuged at 5000 rpms for 20 min. […]

[2] = target: T2, human VEGF-R2 receptor (KDR) (Homo sapiens, UniProt P35968); test: VEGF-induced KDR autophosphorylation in transfected CHO cells, sandwich ELISA; assay type: cell-based; details: Table 5; read-out: KDR, IC50 class
T2 construct: expressed in transfected cells; host or cells: CHO cells
Method: as §1

[3] = target: c-Src kinase (Homo sapiens, UniProt P12931); test: c-Src kinase inhibition; assay type: biochemical; details: Table 5; read-out: c-scr, IC50 class
From the text: An appropriate assay is described in Andrejauskas-Buchdunger et al., Cancer Res. 52, 5353-8 (1992).

[4] = target: HER-1 (Homo sapiens, UniProt P00533); test: HER-1 kinase inhibition; assay type: biochemical; details: Table 5; read-out: HER-1, IC50 class
HER-1, sequence (P00533 25-1210, species assumed): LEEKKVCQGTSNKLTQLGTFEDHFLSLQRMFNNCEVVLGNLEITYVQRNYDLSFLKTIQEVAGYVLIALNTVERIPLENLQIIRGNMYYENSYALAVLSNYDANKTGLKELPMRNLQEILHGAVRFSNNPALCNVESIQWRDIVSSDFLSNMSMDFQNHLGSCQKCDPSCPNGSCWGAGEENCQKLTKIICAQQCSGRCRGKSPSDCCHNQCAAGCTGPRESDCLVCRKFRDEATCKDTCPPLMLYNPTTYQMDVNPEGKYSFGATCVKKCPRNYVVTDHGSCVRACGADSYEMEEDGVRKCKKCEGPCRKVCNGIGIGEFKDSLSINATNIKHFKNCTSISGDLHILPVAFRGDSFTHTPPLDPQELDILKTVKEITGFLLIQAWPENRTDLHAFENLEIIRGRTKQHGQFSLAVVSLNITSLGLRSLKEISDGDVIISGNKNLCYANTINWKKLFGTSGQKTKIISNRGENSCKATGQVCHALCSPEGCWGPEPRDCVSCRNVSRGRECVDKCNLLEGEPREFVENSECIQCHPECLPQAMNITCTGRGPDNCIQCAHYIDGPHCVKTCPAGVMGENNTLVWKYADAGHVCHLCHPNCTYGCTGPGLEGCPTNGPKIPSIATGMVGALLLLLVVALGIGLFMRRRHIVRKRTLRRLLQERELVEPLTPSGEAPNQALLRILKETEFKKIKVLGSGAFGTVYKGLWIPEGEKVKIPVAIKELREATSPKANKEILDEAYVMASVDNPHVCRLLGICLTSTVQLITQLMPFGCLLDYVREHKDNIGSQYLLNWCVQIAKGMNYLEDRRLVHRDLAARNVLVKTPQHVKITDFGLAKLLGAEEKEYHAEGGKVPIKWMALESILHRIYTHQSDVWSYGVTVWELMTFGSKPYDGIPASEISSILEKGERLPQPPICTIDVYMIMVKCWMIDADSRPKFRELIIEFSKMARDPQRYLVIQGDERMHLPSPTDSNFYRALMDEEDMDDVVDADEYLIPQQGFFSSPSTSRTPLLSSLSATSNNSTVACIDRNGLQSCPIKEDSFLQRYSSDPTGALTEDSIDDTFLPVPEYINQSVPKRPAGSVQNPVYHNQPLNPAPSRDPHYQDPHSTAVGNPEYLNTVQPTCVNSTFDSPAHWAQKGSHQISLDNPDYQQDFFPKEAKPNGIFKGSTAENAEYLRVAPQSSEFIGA

c-Src kinase, sequence (P12931 whole entry): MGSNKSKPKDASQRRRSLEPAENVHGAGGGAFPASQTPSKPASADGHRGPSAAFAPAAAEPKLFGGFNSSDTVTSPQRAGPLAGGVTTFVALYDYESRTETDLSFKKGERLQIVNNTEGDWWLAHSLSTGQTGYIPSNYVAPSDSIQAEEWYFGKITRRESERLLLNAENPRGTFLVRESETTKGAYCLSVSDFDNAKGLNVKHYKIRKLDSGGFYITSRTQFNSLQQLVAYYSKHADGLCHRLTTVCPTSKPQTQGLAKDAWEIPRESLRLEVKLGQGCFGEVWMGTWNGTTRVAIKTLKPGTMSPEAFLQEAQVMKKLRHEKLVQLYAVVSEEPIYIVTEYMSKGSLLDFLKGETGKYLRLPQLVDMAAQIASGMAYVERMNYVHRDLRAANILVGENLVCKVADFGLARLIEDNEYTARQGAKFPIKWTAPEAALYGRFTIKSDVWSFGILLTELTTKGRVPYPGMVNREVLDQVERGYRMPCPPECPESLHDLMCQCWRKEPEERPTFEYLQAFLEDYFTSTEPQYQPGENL
T2 sequence (P35968 20-1356): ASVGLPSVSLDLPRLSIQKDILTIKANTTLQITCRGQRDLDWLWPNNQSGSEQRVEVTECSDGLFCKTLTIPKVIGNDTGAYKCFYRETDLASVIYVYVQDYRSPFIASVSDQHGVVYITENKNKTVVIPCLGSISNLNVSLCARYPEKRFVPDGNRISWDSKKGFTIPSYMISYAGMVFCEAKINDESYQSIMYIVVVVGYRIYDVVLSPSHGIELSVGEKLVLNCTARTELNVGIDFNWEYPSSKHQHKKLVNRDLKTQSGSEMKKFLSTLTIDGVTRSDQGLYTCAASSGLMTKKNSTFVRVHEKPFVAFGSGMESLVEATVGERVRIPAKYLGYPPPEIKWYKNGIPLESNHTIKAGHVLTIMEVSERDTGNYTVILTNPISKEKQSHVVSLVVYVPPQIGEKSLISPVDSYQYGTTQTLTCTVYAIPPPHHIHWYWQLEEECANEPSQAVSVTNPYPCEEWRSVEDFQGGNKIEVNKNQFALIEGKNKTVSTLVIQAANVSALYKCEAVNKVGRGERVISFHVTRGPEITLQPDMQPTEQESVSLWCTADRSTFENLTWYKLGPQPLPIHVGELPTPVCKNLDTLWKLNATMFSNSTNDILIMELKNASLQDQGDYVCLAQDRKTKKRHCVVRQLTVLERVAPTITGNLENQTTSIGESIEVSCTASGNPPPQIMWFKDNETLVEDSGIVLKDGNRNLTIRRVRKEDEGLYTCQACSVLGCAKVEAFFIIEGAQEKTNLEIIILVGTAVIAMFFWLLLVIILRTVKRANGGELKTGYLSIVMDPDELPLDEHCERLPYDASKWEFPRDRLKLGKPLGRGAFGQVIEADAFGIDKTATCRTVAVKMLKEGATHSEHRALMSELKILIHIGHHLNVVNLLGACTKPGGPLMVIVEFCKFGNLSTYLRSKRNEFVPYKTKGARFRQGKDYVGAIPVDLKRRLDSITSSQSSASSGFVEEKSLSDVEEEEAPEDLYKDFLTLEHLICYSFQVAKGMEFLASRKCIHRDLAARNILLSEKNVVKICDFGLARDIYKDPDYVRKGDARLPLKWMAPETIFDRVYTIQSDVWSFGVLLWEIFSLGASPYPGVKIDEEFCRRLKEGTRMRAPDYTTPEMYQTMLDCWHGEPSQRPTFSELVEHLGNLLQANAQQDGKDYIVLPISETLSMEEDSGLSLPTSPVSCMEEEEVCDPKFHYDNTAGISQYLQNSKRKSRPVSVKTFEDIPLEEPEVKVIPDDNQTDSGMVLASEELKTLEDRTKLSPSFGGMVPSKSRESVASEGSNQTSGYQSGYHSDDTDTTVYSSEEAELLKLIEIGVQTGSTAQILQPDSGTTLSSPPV

Structure (SMILES) | IC50 [1] | IC50 [2] | melting point | IC50 [3] | IC50 [4]
CN1CCN(c2cccc(-c3cnn4c(N)c(Cc5cccc(Br)c5)cnc34)c2)CC1 [Example 85, 6-(3-Bromo-benzyl)-3-[3-(4-methyl-piperazin-1-yl)-phenyl]pyrazolo[1,5-a]pyrimidin-7-ylamine] | > 10 µM | > 10 µM | 170 to 171 °C | < 1 µM | > 10 µM
CN1CCN(c2cccc(-c3cnn4c(N)c(-c5cccc(Br)c5)cnc34)c2)CC1 [Example 86, 6-(3-Bromo-phenyl)-3-[3-(4-methyl-piperazin-1-yl)-phenyl]-pyrazolo[1,5-a]pyrimidin-7-ylamine] | > 10 µM | < 1 µM | 195.3 to 197.2 °C | < 1 µM | > 10 µM
Cc1nc2c(-c3cccc(N4CCOCC4)c3)cnn2c(N)c1-c1cccc(Cl)c1 [Example 87, 6-(3-Chloro-phenyl)-5-methyl-3-(3-morpholin-4-yl-phenyl)-pyrazolo[1,5-a]pyrimidin-7-ylamine] | > 10 µM | 1 to 10 µM | 165 to 167 °C | < 1 µM | > 10 µM
COc1ccc(-c2cnn3c(N)c(-c4cccc(Cl)c4)c(C)nc23)cc1 [Example 88, 6-(3-Chloro-phenyl)-3-(4-methoxy-phenyl)-5-methyl-pyrazolo[1,5-a]pyrimidin-7-ylamine] | > 10 µM | 1 to 10 µM | 171 to 172 °C | < 1 µM | > 10 µM
Cc1nc2c(-c3cccc(N4C[C@@H](C)O[C@@H](C)C4)c3)cnn2c(N)c1-c1cccc(Cl)c1 [Example 89, 6-(3-Chloro-phenyl)-3-[3-((2R,6S)-2,6-dimethyl-morpholin-4-yl)-phenyl]-5-methyl-pyrazolo[1,5-a]pyrimidin-7-ylamine] | > 10 µM | 1 to 10 µM | 165 to 167 °C | < 1 µM | > 10 µM
Cc1nc2c(-c3cccc(N4CCN(CCO)CC4)c3)cnn2c(N)c1-c1cccc(Cl)c1 [Example 90, 2-(4-{3-[7-Amino-6-(3-chloro-phenyl)-5-methyl-pyrazolo[1,5-a]pyrimidin-3-yl]-phenyl}-piperazin-1-yl)-ethanol] | > 10 µM | 1 to 10 µM | 108 to 116 °C | < 1 µM | > 10 µM
CN1CCN(c2cccc(-c3cnn4c(N)c(Cc5ccccc5)cnc34)c2)CC1 [Example 91, 6-Benzyl-3-[3-(4-methyl-piperazin-1-yl)-phenyl]-pyrazolo[1,5-a]pyrimidin-7-ylamine] | > 10 µM | 1 to 10 µM | 72 to 75 °C | > 10 µM | > 10 µM
COc1ccc(-c2cnn3c(N)c(-c4cccc(Cl)c4)c(C)nc23)cc1OC [Example 93, 6-(3-Chloro-phenyl)-3-(3,4-dimethoxy-phenyl)-5-methyl-pyrazolo[1,5-a]pyrimidin-7-ylamine] | > 10 µM | > 10 µM | 223 to 226 °C | < 1 µM | > 10 µM
COc1ccc(-c2cnn3c(N)c(-c4ccc(F)c(Cl)c4)c(C)nc23)cc1OC [Example 94, 6-(3-Chloro-4-fluoro-phenyl)-3-(3,4-dimethoxy-phenyl)-5-methyl-pyrazolo[1,5-a]pyrimidin-7-ylamine] | > 10 µM | > 10 µM | 235 to 238 °C | < 1 µM | > 10 µM
COc1ccc(-c2cnn3c(N)c(-c4ccc(F)c(Cl)c4)c(C)nc23)cc1 [Example 95, 6-(3-Chloro-4-fluoro-phenyl)-3-(4-methoxy-phenyl)-5-methyl-pyrazolo[1,5-a]pyrimidin-7-ylamine] | > 10 µM | > 10 µM | 224 to 227 °C | 1 to 10 µM | > 10 µM
